Experimental data taken from patent publication US20160120915A1, “METHODS FOR MANIPULATING IMMUNE RESPONSES BY ALTERING MICROBIOTA” (NEW YORK UNIVERSITY, priority 2013, published 2016).
Where a name gives a salt, the structure may show the parent alone.

Legend:
[1] = system: 547 genes related to immunology in ileal tissue; experiment: Ileal gene expression profiling via Nanostring Immunology Panel, STAT; format: in vivo, C57BL6J mice; settings: for Significant Changes Down (ileal Nanostring) / Significant Changes Total (ileal Nanostring) / Significant Changes Up (ileal Nanostring): 8-week old mice
Experimental: RNA was extracted from ileal tissue using the miRNeasy mini kit (Qiagen, Redwood City, Calif., USA) at 8 weeks of age and the expression levels of 547 genes related to immunology were measured by nCounter GX Mouse Immunology Kit (Nanostring Technologies, Seattle, Wash., USA). Significant differences between treatment and control were determined by t-test. For functional characterization, the significant changes were analyzed by Ingenuity Pathway Analysis (Qiagen, Redwood City, Calif.).
Specifically, STAT decreased 111 and 74 genes and increased only 1 and 7 genes in male and female mice, respectively, with numerous consistencies across gender (FIG. 10A-C and Table 2).

[2] = system: splenic CD4+ and CD8+ T-cells; experiment: NOD: flow cytometry of IFNγ-producing splenic T-cells; format: in vivo; settings: 6-week old male NOD mice, n=7, vs controls, p<0.01
Experimental: Leukocytes were isolated from spleens harvested from 6-week old control (n=7) and PAT-treated (n=7) NOD mice. Flow cytometric analysis was performed to assess T-cell cytokine production. Mann-Whitney U-test, ** p<0.01. Bar heights represent the means and error bars represent the standard deviations. […] Taxa with at least two significant timepoints (indicated by *) are illustrated at the phylum, genus, and species level. Dark grey and light grey coloration indicates enrichment at the specified time point in control and in PAT specimens, respectively.

With `CC1(C)S[C@@H]2[C@H](NC(=O)COc3ccccc3)C(=O)N2[C@H]1C(=O)[O-].[K+]` [STAT, penicillin VK] the “Significant Changes Down (ileal Nanostring)” value ([1]; STAT-Female vs control) was 74, the “Significant Changes Total (ileal Nanostring)” value ([1]; STAT-Female vs control) was 81 and the “Significant Changes Up (ileal Nanostring)” value ([1]; STAT-Female vs control) was 7. The “Significant Changes Down (ileal Nanostring)” value ([1]; STAT-Male vs control) was 111, the “Significant Changes Total (ileal Nanostring)” value ([1]; STAT-Male vs control) was 112 and the “Significant Changes Up (ileal Nanostring)” value ([1]; STAT-Male vs control, n=4 per group, t-test <0.05) was 1. For the same compound, the “Significant Changes Down, shared” value ([1]; Shared: STAT-F + Recip-F) was 1, the “Significant Changes Total, shared” value ([1]; Shared: STAT-F + Recip-F) was 1 and the “Significant Changes Up, shared” value ([1]; Shared: STAT-F + Recip-F) was 0. For the same compound, the “Significant Changes Down, shared” value ([1]; Shared: STAT-M + Recip-F) was 3, the “Significant Changes Total, shared” value ([1]; Shared: STAT-M + Recip-F) was 3 and the “Significant Changes Up, shared” value ([1]; Shared: STAT-M + Recip-F) was 0. The “Significant Changes Down, shared” value ([1]; Shared: STAT-M + STAT-F) was 37, the “Significant Changes Total, shared” value ([1]; Shared: STAT-M + STAT-F) was 37 and the “Significant Changes Up, shared” value ([1]; Shared: STAT-M + STAT-F) was 0.

In the case of `CC[C@H]1OC(=O)C[C@@H](O)[C@H](C)[C@@H](O[C@@H]2O[C@H](C)[C@@H](O[C@H]3C[C@@](C)(O)[C@@H](O)[C@H](C)O3)[C@H](N(C)C)[C@H]2O)[C@@H](CC=O)C[C@@H](C)C(=O)/C=C/C(C)=C/[C@@H]1CO[C@@H]1O[C@H](C)[C@@H](O)[C@@H](OC)[C@H]1OC` [Tylosin, Tylosin tartrate], the “proportion of IFNγ-producing splenic CD4+ T-cells” value [2] is reported as “increased” and the “proportion of IFNγ-producing splenic CD8+ T-cells” value [2] is reported as “increased”.
